What was measured:
Test in all cases: cells
[1] = tested on: HT-1080; format: functional, cell-based; conditions: Homo sapiens
Description: SANGER: Inhibition of human HT-1080 cell growth in a cell viability assay.

[2] = tested on: PFSK-1; format: functional, cell-based; conditions: Homo sapiens;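 note: cell viability assay measuring how strongly compounds suppress growth of human PFSK-1 cells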
Description: SANGER: Inhibition of human PFSK-1 cell growth in a cell viability assay.

[3] = tested on: Ca9-22; format: functional, cell-based; conditions: Homo sapiens;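 note: growth inhibition of Ca9-22 cells, read out with a cell viability assay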
Description: SANGER: Inhibition of human Ca9-22 cell growth in a cell viability assay.

[4] = tested on: NCI-H1793; format: functional, cell-based; conditions: Homo sapiens;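 note: cell growth inhibition, read out by a cell viability assay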
Description: SANGER: Inhibition of human NCI-H1793 cell growth in a cell viability assay.

[5] = tested on: NCI-H716; format: functional, cell-based, Homo sapiens; conditions: Homo sapiens, NCI-H716;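 note: growth inhibition of human NCI-H716 cells, measured by a cell viability assay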
Description: SANGER: Inhibition of human NCI-H716 cell growth in a cell viability assay.

[6] = tested on: SK-LU-1; format: functional, cell-based; conditions: Homo sapiens;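 note: cell viability assay measuring growth inhibition of human SK-LU-1 cells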
Description: SANGER: Inhibition of human SK-LU-1 cell growth in a cell viability assay.

[7] = tested on: MKN-45; format: functional, cell-based; conditions: Homo sapiens;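 note: growth inhibition of human MKN-45 cells, measured with a cell viability assay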
Description: SANGER: Inhibition of human MKN45 cell growth in a cell viability assay.

[8] = tested on: BFTC-909; format: functional, cell-based; conditions: Homo sapiens
Description: SANGER: Inhibition of human BFTC-909 cell growth in a cell viability assay.

[9] = tested on: CA46; format: functional, cell-based, Homo sapiens; conditions: Homo sapiens, CA46;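 note: growth inhibition of human CA46 cells, read out by a cell viability assay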
Description: SANGER: Inhibition of human CA46 cell growth in a cell viability assay.

[10] = tested on: Calu-3; format: functional, cell-based; conditions: Homo sapiens;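 note: growth inhibition of human Calu-3 cells, determined with a cell viability assay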
Description: SANGER: Inhibition of human Calu-3 cell growth in a cell viability assay.

[11] = tested on: NCI-H1755; format: functional, cell-based; conditions: Homo sapiens;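 note: cell viability readout used to measure growth inhibition of NCI-H1755 cells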
Description: SANGER: Inhibition of human NCI-H1755 cell growth in a cell viability assay.

[12] = tested on: Detroit 562; format: functional, cell-based; conditions: Homo sapiens;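 note: growth inhibition of human Detroit 562 cells, read out by a cell viability assay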
Description: SANGER: Inhibition of human Detroit562 cell growth in a cell viability assay.

[13] = tested on: S-117; format: functional, cell-based; conditions: Homo sapiens
Description: SANGER: Inhibition of human S-117 cell growth in a cell viability assay.

[14] = tested on: HTC-C3; format: functional, cell-based; conditions: Homo sapiens;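 note: inhibition of cell growth, read out with a cell viability assay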
Description: SANGER: Inhibition of human HTC-C3 cell growth in a cell viability assay.

[15] = tested on: UACC-812; format: functional, cell-based; conditions: Homo sapiens
Description: SANGER: Inhibition of human UACC-812 cell growth in a cell viability assay.

[16] = tested on: NCI-H2228; format: functional, cell-based; conditions: Homo sapiens;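 note: growth inhibition of human NCI-H2228 cells, read out by a cell viability assay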
Description: SANGER: Inhibition of human NCI-H2228 cell growth in a cell viability assay.

[17] = tested on: RERF-LC-MS; format: functional, cell-based; conditions: Homo sapiens;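 note: growth inhibition of human RERF-LC-MS cells, read out by a cell viability assay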
Description: SANGER: Inhibition of human RERF-LC-MS cell growth in a cell viability assay.

[18] = tested on: AGS; format: functional, cell-based; conditions: Homo sapiens;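 note: growth inhibition of AGS cells, determined with a cell viability assay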
Description: SANGER: Inhibition of human AGS cell growth in a cell viability assay.

[19] = tested on: SK-MEL-24; format: functional, cell-based; conditions: Homo sapiens;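 note: growth inhibition read out by a cell viability assay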
Description: SANGER: Inhibition of human SK-MEL-24 cell growth in a cell viability assay.

[20] = tested on: NCI-H2009; format: functional, cell-based; conditions: Homo sapiens;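 note: cell viability assay measuring inhibition of NCI-H2009 cell growth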
Description: SANGER: Inhibition of human NCI-H2009 cell growth in a cell viability assay.

[21] = tested on: ASPC1; format: functional, cell-based; conditions: Homo sapiens;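 note: growth inhibition of AsPC-1 cells, read out with a cell viability assay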
Description: SANGER: Inhibition of human AsPC-1 cell growth in a cell viability assay.

[22] = tested on: CAL-85-1; format: functional, cell-based; conditions: Homo sapiens;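 note: growth inhibition of human CAL-85-1 cells, read out with a cell viability assay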
Description: SANGER: Inhibition of human CAL-85-1 cell growth in a cell viability assay.

[23] = tested on: NCI-H1437; format: functional, cell-based; conditions: Homo sapiens;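 note: growth inhibition of human NCI-H1437 cells, read out by a cell viability assay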
Description: SANGER: Inhibition of human NCI-H1437 cell growth in a cell viability assay.

[24] = tested on: COR-L23; format: functional, cell-based; conditions: Homo sapiens;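 note: cell viability assay measuring how strongly compounds suppress growth of COR-L23 cells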
Description: SANGER: Inhibition of human COR-L23 cell growth in a cell viability assay.

[25] = tested on: IST-SL2; format: functional, cell-based, Homo sapiens; conditions: Homo sapiens, IST-SL2;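 note: growth inhibition of human IST-SL2 cells, read out by a cell viability assay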
Description: SANGER: Inhibition of human IST-SL2 cell growth in a cell viability assay.

[26] = tested on: GDM-1; format: functional, cell-based, Homo sapiens; conditions: Homo sapiens, GDM-1; read-out: IC50;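 note: cell viability readout used to measure growth inhibition of human GDM-1 cells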
Description: SANGER: Inhibition of human GDM-1 cell growth in a cell viability assay.

[27] = tested on: NCI-H1703; format: functional, cell-based; conditions: Homo sapiens;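 note: growth inhibition of NCI-H1703 cells, read out via a cell viability assay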
Description: SANGER: Inhibition of human NCI-H1703 cell growth in a cell viability assay.

[28] = tested on: CAL-120; format: functional, cell-based; conditions: Homo sapiens;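 note: cell growth inhibition, read out as cell viability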
Description: SANGER: Inhibition of human CAL-120 cell growth in a cell viability assay.

[29] = tested on: NCI-H64; format: functional, cell-based, Homo sapiens; conditions: Homo sapiens, NCI-H64;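 note: growth inhibition of NCI-H64 cells, read out with a cell viability assay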
Description: SANGER: Inhibition of human NCI-H64 cell growth in a cell viability assay.

[30] = tested on: T98G; format: functional, cell-based; conditions: Homo sapiens;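 note: growth inhibition of T98G cells, read out by a cell viability assay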
Description: SANGER: Inhibition of human T98G cell growth in a cell viability assay.

[31] = tested on: KYSE-180; format: functional, cell-based; conditions: Homo sapiens;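 note: growth inhibition of KYSE-180 cells, read out with a cell viability assay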
Description: SANGER: Inhibition of human KYSE-180 cell growth in a cell viability assay.

[32] = tested on: RPMI-2650; format: functional, cell-based; conditions: Homo sapiens
Description: SANGER: Inhibition of human RPMI-2650 cell growth in a cell viability assay.

[33] = tested on: A673; format: functional, cell-based; conditions: Homo sapiens;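 note: growth inhibition of human A673 cells, read out through a cell viability assay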
Description: SANGER: Inhibition of human A673 cell growth in a cell viability assay.

[34] = tested on: HMV-2 cell line; format: functional, cell-based; conditions: Homo sapiens;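 note: growth inhibition of HMV-II cells, read out with a cell viability assay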
Description: SANGER: Inhibition of human HMV-II cell growth in a cell viability assay.

[35] = tested on: BFTC-905; format: functional, cell-based; conditions: Homo sapiens
Description: SANGER: Inhibition of human BFTC-905 cell growth in a cell viability assay.

[36] = tested on: SW13; format: functional, cell-based; conditions: Homo sapiens;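 note: IC50 is inhibition of SW13 cell growth, read out with a cell viability assay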
Description: SANGER: Inhibition of human SW13 cell growth in a cell viability assay.

[37] = tested on: EHEB; format: functional, cell-based; conditions: Homo sapiens;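 note: growth inhibition of human EHEB cells, read out with a cell viability assay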
Description: SANGER: Inhibition of human EHEB cell growth in a cell viability assay.

[38] = tested on: RD; format: functional, cell-based; conditions: Homo sapiens
Description: SANGER: Inhibition of human RD cell growth in a cell viability assay.

[39] = tested on: HSC-3; format: functional, cell-based; conditions: Homo sapiens
Description: SANGER: Inhibition of human HSC-3 cell growth in a cell viability assay.

[40] = tested on: HT-3; format: functional, cell-based; conditions: Homo sapiens;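 note: growth inhibition measured with a cell viability readout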
Description: SANGER: Inhibition of human HT-3 cell growth in a cell viability assay.

[41] = tested on: NCI-H2030; format: functional, cell-based; conditions: Homo sapiens;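 note: growth inhibition of human NCI-H2030 cells, read out by a cell viability assay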
Description: SANGER: Inhibition of human NCI-H2030 cell growth in a cell viability assay.

[42] = tested on: KMOE-2; format: functional, cell-based, Homo sapiens; conditions: Homo sapiens, KMOE-2;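 note: growth inhibition of human KMOE-2 cells, read out with a cell viability assay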
Description: SANGER: Inhibition of human KMOE-2 cell growth in a cell viability assay.

[43] = tested on: RO82-W-1; format: functional, cell-based; conditions: Homo sapiens;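 note: growth inhibition of human RO82-W-1 cells, measured with a cell viability assay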
Description: SANGER: Inhibition of human RO82-W-1 cell growth in a cell viability assay.

[44] = tested on: EFM-19; format: functional, cell-based; conditions: Homo sapiens;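 note: growth inhibition of human EFM-19 cells, measured in a cell viability assay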
Description: SANGER: Inhibition of human EFM-19 cell growth in a cell viability assay.

[45] = tested on: D-542MG; format: functional, cell-based; conditions: Homo sapiens
Description: SANGER: Inhibition of human D-542MG cell growth in a cell viability assay.

[46] = tested on: BC-3; format: functional, cell-based, Homo sapiens; conditions: Homo sapiens, BC-3;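 note: cell viability assay measuring growth inhibition of human BC-3 cells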
Description: SANGER: Inhibition of human BC-3 cell growth in a cell viability assay.

[47] = tested on: Daoy; format: functional, cell-based; conditions: Homo sapiens;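 note: daoy cell growth inhibition, read out as cell viability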
Description: SANGER: Inhibition of human Daoy cell growth in a cell viability assay.

[48] = tested on: SNU-387; format: functional, cell-based; conditions: Homo sapiens
Description: SANGER: Inhibition of human SNU-387 cell growth in a cell viability assay.

[49] = tested on: HGC-27; format: functional, cell-based; conditions: Homo sapiens;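 note: growth inhibition of human HGC-27 cells, read out in a cell viability assay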
Description: SANGER: Inhibition of human HGC-27 cell growth in a cell viability assay.

[50] = tested on: CAPAN-1; format: functional, cell-based; conditions: Homo sapiens;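 note: growth suppression of CAPAN-1 cells, read out by a cell viability assay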
Description: SANGER: Inhibition of human CAPAN-1 cell growth in a cell viability assay.

[51] = tested on: SW1417; format: functional, cell-based; conditions: Homo sapiens;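 note: growth inhibition of human SW1417 cells, read out with a cell viability assay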
Description: SANGER: Inhibition of human SW1417 cell growth in a cell viability assay.

[52] = tested on: DBTRG-05MG; format: functional, cell-based; conditions: Homo sapiens;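 note: cell viability assay measuring growth inhibition of human DBTRG-05MG cells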
Description: SANGER: Inhibition of human DBTRG-05MG cell growth in a cell viability assay.

[53] = tested on: SW626; format: functional, cell-based; conditions: Homo sapiens;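 note: growth inhibition of SW626 cells, measured with a cell viability assay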
Description: SANGER: Inhibition of human SW626 cell growth in a cell viability assay.

[54] = tested on: HN; format: functional, cell-based; conditions: Homo sapiens
Description: SANGER: Inhibition of human HN cell growth in a cell viability assay.

[55] = tested on: MeWo; format: functional, cell-based; conditions: Homo sapiens;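 note: growth inhibition of MeWo cells, determined by a cell viability readout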
Description: SANGER: Inhibition of human Mewo cell growth in a cell viability assay.

[56] = tested on: NCI-H2347; format: functional, cell-based; conditions: Homo sapiens;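 note: growth inhibition of the cell line, read out with a cell viability assay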
Description: SANGER: Inhibition of human NCI-H2347 cell growth in a cell viability assay.

[57] = tested on: Raji; format: functional, cell-based, Homo sapiens; conditions: Homo sapiens, Raji;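 note: cell viability assay measuring inhibition of Raji cell growth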
Description: SANGER: Inhibition of human Raji cell growth in a cell viability assay.

[58] = tested on: MG-63; format: functional, cell-based; conditions: Homo sapiens;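 note: growth inhibition of human MG-63 cells, read out with a cell viability assay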
Description: SANGER: Inhibition of human MG-63 cell growth in a cell viability assay.

`CCCCCCCCCCCC1=C(O)C(=O)C=C(O)C1=O` [EMBELIN] gave an IC50 [1] of 4.76 µM, an IC50 [2] of 14 µM and an IC50 [3] of 12.4 µM. For the same compound, the IC50 [4] was > 32 µM, the IC50 [5] was > 32 µM and the IC50 [6] was 7.21 µM. For the same compound, the IC50 [7] was 7.98 µM, the IC50 [8] was > 32 µM and the IC50 [9] was 18.7 µM. For the same compound, the IC50 [10] was 8.45 µM, the IC50 [11] was > 32 µM and the IC50 [12] was 11.5 µM. For the same compound, the IC50 [13] was 3.63 µM, the IC50 [14] was 12.8 µM and the IC50 [15] was > 32 µM. The IC50 [16] was > 32 µM, the IC50 [17] was 30.6 µM and the IC50 [18] was 8.63 µM. For the same compound, the IC50 [19] was 4.67 µM, the IC50 [20] was 11.9 µM and the IC50 [21] was > 32 µM. It also gave an IC50 [22] of 7.81 µM, an IC50 [23] of 6.27 µM and an IC50 [24] of 9.63 µM. The IC50 [25] was > 32 µM, the IC50 [26] was 28 µM and the IC50 [27] was 19.1 µM. The IC50 [28] was 24 µM, the IC50 [29] was > 32 µM and the IC50 [30] was 19.6 µM. For the same compound, the IC50 [31] was 7.58 µM, the IC50 [32] was 7.32 µM and the IC50 [33] was 12.6 µM. It also gave an IC50 [34] of 4.61 µM, an IC50 [35] of 5.03 µM and an IC50 [36] of 12.6 µM. For the same compound, the IC50 [37] was > 32 µM, the IC50 [38] was 15.3 µM and the IC50 [39] was 23.9 µM. It also gave an IC50 [40] of 27.6 µM, an IC50 [41] of 12.7 µM and an IC50 [42] of 24.3 µM. The IC50 [43] was > 32 µM, the IC50 [44] was 4.91 µM and the IC50 [45] was 3.13 µM. For the same compound, the IC50 [46] was > 32 µM, the IC50 [47] was 5.46 µM and the IC50 [48] was 27.2 µM. For the same compound, the IC50 [49] was 7.95 µM, the IC50 [50] was 9.01 µM and the IC50 [51] was > 32 µM. For the same compound, the IC50 [52] was 15.4 µM, the IC50 [53] was 9.35 µM and the IC50 [54] was 24.8 µM. The IC50 [55] was 15.9 µM, the IC50 [56] was 7.48 µM and the IC50 [57] was 10.5 µM. The IC50 [58] was 9.64 µM.

Source: ChEMBL document CHEMBL1201861, “Genomics of Drug Sensitity in Cancer screening data, Wellcome Trust Sanger Institute”
